Test results published in patent US20030235811A1, “Crystallized mammalian carboxylesterase polypeptide and screening methods employing same” (priority 2002, published 2003).

Assays:
wild type rCE = target: T1, wild type rCE (Oryctolagus cuniculus, UniProt P12337); test: CD thermal denaturation of wild type rCE in the presence of 4PP; assay type: binding, rabbit; settings: 1 mM βME
T1 construct: made in house; host or cells: Spodoptera frugiperda Sf21 cells, baculovirus, secreted into the medium
T1 sequence (P12337 19-559 limits assumed): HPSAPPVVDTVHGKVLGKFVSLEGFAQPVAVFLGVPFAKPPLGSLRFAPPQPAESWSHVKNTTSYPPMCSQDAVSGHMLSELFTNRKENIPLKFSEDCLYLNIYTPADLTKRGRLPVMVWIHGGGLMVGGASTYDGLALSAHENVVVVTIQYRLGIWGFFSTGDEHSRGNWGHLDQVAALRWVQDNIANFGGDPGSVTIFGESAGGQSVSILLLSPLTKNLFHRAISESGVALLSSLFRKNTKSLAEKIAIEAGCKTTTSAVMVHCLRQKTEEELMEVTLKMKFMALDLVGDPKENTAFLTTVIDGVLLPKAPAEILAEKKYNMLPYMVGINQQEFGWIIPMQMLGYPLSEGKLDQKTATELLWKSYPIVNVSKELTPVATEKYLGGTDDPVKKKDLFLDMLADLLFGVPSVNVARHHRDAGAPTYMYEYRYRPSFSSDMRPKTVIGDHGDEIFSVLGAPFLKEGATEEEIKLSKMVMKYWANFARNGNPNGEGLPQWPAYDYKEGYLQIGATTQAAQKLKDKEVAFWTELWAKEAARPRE
Procedure: (§1) Experiments were conducted by monitoring rCE denaturation in an Applied Photophysics PISTAR-180™ CD spectropolarimeter (Applied Photophysics, Surrey, United Kingdom). Deglycosylated rCE was generated by an 18-hour treatment with 0.25 μM PNGase F (Hampton Research, Laguna Niguel, Calif., United States of America) at 37° C., which cleaves the complete high-mannose glycosyl group. Removal of the carbohydrate chains was confirmed by SDS-PAGE. Wild type protein was also heated to 37° C. for 18 hours before CD experiments. Wild type or deglycosylated rCE (0.15 mg ml^−1 (2.5 μM); in 10 mM phosphate buffer, pH 7.0, and 1 mM fresh beta-mercaptoethanol (βME) to eliminate the stabilizing effect of disulfide linkages) was treated with no 4PP or with 0.016 mM, 0.16 mM, 1.6 mM or 10 mM 4PP. The temperature was increased from 20 to 98° C. while monitoring the ellipticity at 222 nm. […]
(§2) To confirm the significance of the 4PP bound to the surface of rCE, thermal denaturation studies were performed using CD on both wild type and deglycosylated rCE. […] In the presence of fresh reducing agent (1 mM β-mercaptoethanol (βME)), thermal denaturation of wild type and deglycosylated rCE was monitored alone and in the presence of 10-(0.016 mM), 100-(0.16 mM), 1,000-(1.6 mM) and 6,000-fold (10 mM) molar excess 4PP (FIGS. 7-9). […]

deglycosylated rCE = target: T2, deglycosylated rCE (Oryctolagus cuniculus, UniProt P12337); test: CD thermal denaturation of deglycosylated rCE in the presence of 4PP; assay type: binding, rabbit
T2 construct: made in house; host or cells: Spodoptera frugiperda Sf21 cells, baculovirus, secreted; then PNGase F treatment
T2 sequence (P12337 19-559): T1 sequence (P12337 19-559 limits assumed)
Procedure: as §1, §2

[1] = humans; cited from earlier work
hCE1 = hCE1 (Homo sapiens, UniProt P23141)
Sequence of hCE1 (P23141 18-560 isoform P23141-3 limits assumed): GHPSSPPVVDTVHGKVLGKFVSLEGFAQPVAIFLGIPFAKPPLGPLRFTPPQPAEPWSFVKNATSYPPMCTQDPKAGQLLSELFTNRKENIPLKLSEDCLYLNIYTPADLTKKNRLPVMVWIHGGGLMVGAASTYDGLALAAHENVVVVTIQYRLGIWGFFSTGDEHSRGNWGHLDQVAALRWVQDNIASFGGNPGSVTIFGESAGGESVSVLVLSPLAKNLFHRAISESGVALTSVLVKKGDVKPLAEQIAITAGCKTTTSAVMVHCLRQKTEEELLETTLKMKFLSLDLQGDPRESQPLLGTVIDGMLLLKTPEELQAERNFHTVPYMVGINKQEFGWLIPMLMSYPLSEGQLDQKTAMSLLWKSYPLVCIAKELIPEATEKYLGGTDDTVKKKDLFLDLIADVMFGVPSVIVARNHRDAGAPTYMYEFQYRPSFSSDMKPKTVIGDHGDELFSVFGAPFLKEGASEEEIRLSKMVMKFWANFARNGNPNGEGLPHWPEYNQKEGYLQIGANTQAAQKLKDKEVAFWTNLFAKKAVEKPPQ
Procedure: A 62 kDa C-terminally-truncated form of human carboxylesterase 1 (hCE1; SEQ ID NO: 4) that lacks six C-terminal amino acids, allowing secretion of the expressed enzyme (baculovirus in Spodoptera frugiperda Sf21 cells) into the culture media, was employed. hCE1 was purified by preparative isoelectric focusing and size exclusion chromatography (BIO-GEL® P-100, Bio-Rad, Laboratories, Hercules, Calif.) from protein-free culture media. Purified hCE1 was concentrated to 5 mg ml^−1 in 20 mM HEPES pH 7.4, and crystallized in the presence of either 10 mM tacrine or 100 mM homatropine. […]
Diffraction data were collected at Stanford Synchrotron Radiation Laboratory (SSRL) beamline 9-1, and were processed and reduced using MOSFILM (Leslie, (1992), Joint CCP4+ESF-EAMCB Newsletter on Protein Crystallography, No. 26.). […] The structures of hCE1 were determined by molecular replacement using the structure of rabbit carboxylesterase (rCE; RCSB Protein ID No. 1K4Y; Bencharit et al., (2002) Nat.Struct.Biol. 9: 337), also an aspect of the present invention, as a search model (81% sequence identity). […] Manual adjustments and rebuilding were performed using the program O (Jones et al., (1991) Acta Crystallogr. A 47: 110-119) and σA-weighted electron density maps (Read, (1986) Acta Crystallogr. A 42: 140-149). […]

[2] = target: the molecule itself; test: X-ray crystal structure (self-association, homotrimer)
Procedure: Diffraction data were collected at Stanford Synchrotron Radiation Laboratory (SSRL) beamline 9-1, and were processed and reduced using MOSFILM (Leslie, (1992), Joint CCP4+ESF-EAMCB Newsletter on Protein Crystallography, No. 26.). Crystals were of space group P2₁, and contained six molecules in the asymmetric unit for both the tacrine and homatropine complexes. See FIG. 12, in which each hCE1 is depicted in a different color. The structures of hCE1 were determined by molecular replacement using the structure of rabbit carboxylesterase (rCE; RCSB Protein ID No. 1K4Y; Bencharit et al., (2002) Nat.Struct.Biol. 9: 337), also an aspect of the present invention, as a search model (81% sequence identity). Non-identical side chains were trimmed prior to rotation and translation function searches in AmoRe (Navaza & Saludjian, (1997) Methods Enzymol. 276A: 581-594). The structures were refined using torsion angle dynamics in CNS with the maximum likelihood function target, and included an overall anisotropic B-factor and a bulk solvent correction. […] Manual adjustments and rebuilding were performed using the program O (Jones et al., (1991) Acta Crystallogr. A 47: 110-119) and σA-weighted electron density maps (Read, (1986) Acta Crystallogr. A 42: 140-149). […]

C1CCN(C2CCNCC2)CC1 [4PP, 4-piperidino-piperidine]
melting temperature (Tm) of wild type rCE (wild type rCE; 10- to 100-fold molar excess of 4PP (0.016-0.16 mM)): 51 °C
melting temperature (Tm) of wild type rCE (wild type rCE; higher concentrations of 4PP (1.6 mM, 10 mM)): 54-55 °C
effect on thermal stability of deglycosylated rCE (deglycosylated rCE; high concentrations of 4PP): stabilization occurs only with high concentrations
effect on thermal stability of deglycosylated rCE (deglycosylated rCE; lower concentrations of 4PP): destabilize the enzyme

CCc1c2c(nc3ccc(O)cc13)-c1cc3c(c(=O)n1C2)COC(=O)[C@]3(O)CC [SN-38]
share of the SN-38 generated by activation of CPT-11 that makes it to the tumor [1]: ~2%

Nc1c2c(nc3ccccc13)CCCC2 [tacrine, 1,2,3,4-tetrahydro-9-acridinamine]
binding to hCE1 (hCE1): binds effectively

B1: human carboxylesterase 1 (hCE1), 62 kDa C-terminally-truncated form lacking six C-terminal amino acids (enzyme)
chain: GHPSSPPVVDTVHGKVLGKFVSLEGFAQPVAIFLGIPFGKPPLGPLRFTPPQPAEPWSFVKNATSYPPMCTQDPKAGQLLSELFTNRKENIPLKLSEDCLYLNIYTPADLTKKNRLPVMVWIHGGGLMVGAASTYDGLALAAHENVVVVTIQYRLGIWGFFSTGDEHSRGNWGHLDQVAALRWVQDNIASFGGNPGSVTIFGESAGGESVSVLVLSPLAKNLFHRAISESGVALTSVLVKKGDVKPLAEQIAITAGCKTTTSAVMVHCLRQKTEEELLETTLKMKFLSLDLQGDPRESQPLLGTVIDGMLLLKTPEELQAERNFHTVPYMVGINKQEFGWLIPMLMSYPLSEGQLDQKTAMSLLWKSYPLVCIAKELIPEATEKYLGGTDDTVKKKDLFLDLIADVMFGVPSVIVARNHRDAGAPTYMYEFQYRPSFSSDMKPKTVIGDHGDELFSVFGAPFLKEGASEEEIRLSKMVMKFWANFARNGNPNGEGLPHWPEYNQKEGYLQIGANTQAAQKLKDKEVAFWTNLFAKKAVEKPPQT
modifications: N-linked glycans (added to the model in refinement; positions not stated for the crystallised protein)
notes: Expressed by baculovirus in Spodoptera frugiperda Sf21 cells and secreted into the culture media; crystallised with tacrine or homatropine; also called human CE; human CE1
binding result [2]: binds
